{"source": "patent US9237747B2", "about": "“Herbicidal compositions comprising 4-amino-3-chloro-5-fluoro-6-(4-chloro-2-fluoro-3-methoxyphenyl) pyridine-2-carboxylic acid or a derivative thereof and insecticides” (priority 2013, dated 2016)", "key": {"LEFCH": {"tested_on": "LEFCH", "assay": "whole plant or invertebrate", "assay_type": "in vivo, Leptochloa chinensis", "summary_of_the_method": "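Foliar spray, 187 L/ha, track sprayer; 1.25% v/v COC, 8.1% acetone, 0.25% DMSO in spray. Plants at 1st–4th true leaf, greenhouse 29/26 °C. Visual injury 0–100% (0 = none, 100 = complete kill) at ~3 wk after treatment; expected mixture response by Colby.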"}, "SCPMA": {"tested_on": "SCPMA", "assay": "In-water applied weed control, transplanted paddy rice (greenhouse)", "assay_type": "in vivo, Schoenoplectus maritimus", "experimental": "Weed seeds or nutlets of the desired test plant species were planted in puddled soil (mud) prepared by mixing a shredded, non-sterilized mineral soil (50.5 percent silt, 25.5 percent clay, and 24 percent sand, with a pH of about 7.6 and an organic matter content of about 2.9 percent) and water at a 1:1 volumetric ratio. The prepared mud was dispensed in 365 mL aliquots into 16-ounce (oz.) non-perforated plastic pots with a surface area of 86.59 square centimeters (cm^2) leaving a headspace of 3 centimeters (cm) in each pot. Rice seeds were planted in Sun Gro MetroMix® 306 planting mixture, which typically has a pH of 6.0 to 6.8 and an organic matter content of about 30 percent, in plastic plug trays. Seedlings at the second or third leaf stage of growth were transplanted into 860 mL of mud contained in 32-oz. non-perforated plastic pots with a surface area of 86.59 cm^2 4 days prior to herbicide application. The paddy was created by filling the headspace of the pots with 2.5 to 3 cm of water. When required to ensure good germination and healthy plants, a fungicide treatment and/or other chemical or physical treatment was applied. The plants were grown for 4-22 days in a greenhouse with an approximate 14 h photoperiod which was maintained at about 29° C. during the day and about 26° C. during the night. Nutrients were added as Osmocote® (17:6:10, N:P:K+minor nutrients) at 2 grams (g) per 16-oz. pot and 4 g per 32-oz. pot. Water was added on a regular basis to maintain the paddy flood, and supplemental lighting was provided with overhead metal halide 1000-Watt lamps as necessary. The plants were employed for testing when they reached the first through fourth true leaf stage.\nTreatments consisted of the acid or esters of 4-amino-3-chloro-5-fluoro-6-(4-chloro-2-fluoro-3-methoxy-phenyl)pyridine-2-carboxylic acid (compound A) each formulated as an SC (suspension concentrate) and various herbicidal components alone and in combination. Forms of compound A were applied on an acid equivalent basis.\nOther […] components were applied on an active ingredient basis and consisted of etofenprox (technical grade material) and sulfoxaflor formulated as Sulfoxaflor WG.\nTreatment requirements for each compound or herbicidal component were calculated based upon the rates being tested, the concentration of active ingredient or acid equivalent in the formulation, an application volume of 2 mL per component per pot, and an application area of 86.59 cm^2 per pot.\nFor formulated compounds, a measured amount was placed in an individual 100 or 200 mL glass vial and was dissolved in a volume of 1.25% (v/v) AgriDex® crop oil concentrate to obtain application solutions.\nFor technical grade compounds, a weighed amount was placed in an individual 100 to 200 mL glass vial and was dissolved in a volume of acetone to obtain concentrated stock solutions.\nApplications were made by injecting with a pipetter appropriate amounts of the application solutions, individually and sequentially, into the aqueous layer of the paddy. Control plants were treated in the same manner with the solvent blank. Applications were made so that all treated plant material received the same concentrations of acetone and crop oil concentrate.\nThe treated plants and control plants were placed in a greenhouse as described above and water was added as needed to maintain a paddy flood. After approximately 3 weeks the condition of the test plants as compared with that of the untreated plants was determined visually and scored on a scale of 0 to 100 percent where 0 corresponds to no injury or growth inhibition and 100 corresponds to complete kill.\nColby's equation was used to determine the herbicidal effects expected from the mixtures (Colby, S. R. Calculation of the synergistic and antagonistic response of herbicide combinations. Weeds 1967, 15, 20-22.). […]"}}, "note": "“And” between values parts separate entries of the source, which are not always exact repeats. Identical values can stand only once. Like-named read-outs stand apart in the source and are kept apart here."}
{"compound": "CC(c1ccc(C(F)(F)F)nc1)S(C)(=O)=NC#N", "note": "(centres unmarked) [Sulfoxaflor, N-[methyloxido[1-[6-(trifluoromethyl)-3-pyridinyl]ethyl]-λ^4-sulfanylidene]cyanamide]", "values": [{"measurement": "Visual Weed Control (%) - 21 DAA LEFCH Obs", "setting": "LEFCH; 21 DAA, 12.5 g ai/ha alone", "result": 0, "unit": "%"}, {"measurement": "Visual Weed Control (%) - 21 DAA LEFCH Obs", "setting": "LEFCH; 21 DAA, 25 g ai/ha alone", "result": 0, "unit": "%"}, {"measurement": "Visual Weed Control (%) - 21 DAA LEFCH Obs", "setting": "LEFCH; 21 DAA, 37.5 g ai/ha alone", "result": 0, "unit": "%"}, {"measurement": "Visual Weed Control (%) - 21 DAA LEFCH Obs", "setting": "LEFCH; 21 DAA, 50 g ai/ha alone", "result": 0, "unit": "%"}, {"measurement": "Visual Weed Control (%) - 21 DAA LEFCH Obs", "setting": "LEFCH; 21 DAA, 75 g ai/ha alone", "result": 0, "unit": "%"}, {"measurement": "Visual Weed Control (%) - 21 DAA LEFCH Obs", "setting": "LEFCH; 21 DAA, 150 g ai/ha alone", "result": 0, "unit": "%"}, {"measurement": "Visual Weed Control (%) - 21 DAA SCPMA Obs", "setting": "SCPMA; 21 DAA, 50 g ai/ha alone", "result": 0, "unit": "%"}, {"measurement": "Visual Weed Control (%) - 21 DAA SCPMA Obs", "setting": "SCPMA; 50 g ai/ha alone", "result": 0, "unit": "%"}]}
{"compound": "COc1c(Cl)ccc(-c2nc(C(=O)O)c(Cl)c(N)c2F)c1F", "note": "[Compound A Acid, 4-amino-3-chloro-6-(4-chloro-2-fluoro-3-methoxyphenyl)-5-fluoropyridine-2-carboxylic acid]", "values": [{"measurement": "Visual Weed Control (%) - 20 DAA LEFCH Obs", "setting": "LEFCH; 4.38 g ae/ha alone", "result": 0, "unit": "%"}, {"measurement": "Visual Weed Control (%) - 20 DAA LEFCH Obs", "setting": "LEFCH; 5.3 g ae/ha alone", "result": 0, "unit": "%"}, {"measurement": "Visual Weed Control (%) - 20 DAA LEFCH Obs", "setting": "LEFCH; 10.6 g ae/ha alone", "result": 20, "unit": "%"}, {"measurement": "Visual Weed Control (%) - 21 DAA LEFCH Obs", "setting": "LEFCH; 21 DAA, 8.75 g ae/ha alone", "result": 30, "unit": "%"}, {"measurement": "Visual Weed Control (%) - 21 DAA LEFCH Obs", "setting": "LEFCH; 21 DAA, 17.5 g ae/ha alone", "result": 30, "unit": "%"}, {"measurement": "Visual Weed Control (%) - 20 DAA LEFCH Obs", "setting": "LEFCH; 21.2 g ae/ha alone", "result": 45, "unit": "%"}, {"measurement": "Visual Weed Control (%) - 21 DAA SCPMA Obs", "setting": "SCPMA; 4.38 g ae/ha alone", "result": 0, "unit": "%"}, {"measurement": "Visual Weed Control (%) - 21 DAA SCPMA Obs", "setting": "SCPMA; 8.75 g ae/ha alone", "result": 0, "unit": "%"}]}
{"compound": "COc1c(Cl)ccc(-c2nc(C(=O)OCc3ccccc3)c(Cl)c(N)c2F)c1F", "note": "[Compound A Benzyl Ester]", "values": [{"measurement": "Visual Weed Control (%) - 20 DAA LEFCH Obs", "setting": "LEFCH; 4.38 g ae/ha alone", "result": "15% and 20%"}, {"measurement": "Visual Weed Control (%) - 21 DAA LEFCH Obs", "setting": "LEFCH; 4.38 g ae/ha alone", "result": 10, "unit": "%"}, {"measurement": "Visual Weed Control (%) - 19 DAA LEFCH Obs", "setting": "LEFCH; 8 g ae/ha alone", "result": 45, "unit": "%"}, {"measurement": "Visual Weed Control (%) - 20 DAA LEFCH Obs", "setting": "LEFCH; 8 g ae/ha alone", "result": 15, "unit": "%"}, {"measurement": "Visual Weed Control (%) - 20 DAA LEFCH Obs", "setting": "LEFCH; 8.75 g ae/ha alone", "result": "30% and 35%"}, {"measurement": "Visual Weed Control (%) - 21 DAA LEFCH Obs", "setting": "LEFCH; 8.75 g ae/ha alone", "result": 25, "unit": "%"}, {"measurement": "Visual Weed Control (%) - 19 DAA LEFCH Obs", "setting": "LEFCH; 16 g ae/ha alone", "result": 45, "unit": "%"}, {"measurement": "Visual Weed Control (%) - 20 DAA LEFCH Obs", "setting": "LEFCH; 16 g ae/ha alone", "result": 25, "unit": "%"}, {"measurement": "Visual Weed Control (%) - 20 DAA LEFCH Obs", "setting": "LEFCH; 17.5 g ae/ha alone", "result": "50% and 60%"}, {"measurement": "Visual Weed Control (%) - 21 DAA LEFCH Obs", "setting": "LEFCH; 17.5 g ae/ha alone", "result": 30, "unit": "%"}, {"measurement": "Visual Weed Control (%) - 19 DAA LEFCH Obs", "setting": "LEFCH; 19 DAA, 8 g ae/ha alone", "result": 45, "unit": "%"}, {"measurement": "Visual Weed Control (%) - 19 DAA LEFCH Obs", "setting": "LEFCH; 19 DAA, 16 g ae/ha alone", "result": 45, "unit": "%"}, {"measurement": "Visual Weed Control (%) - 19 DAA LEFCH Obs", "setting": "LEFCH; 19 DAA, 32 g ae/ha alone", "result": 50, "unit": "%"}, {"measurement": "Visual Weed Control (%) - 21 DAA LEFCH Obs", "setting": "LEFCH; 21 DAA, 8 g ae/ha alone", "result": 15, "unit": "%"}, {"measurement": "Visual Weed Control (%) - 21 DAA LEFCH Obs", "setting": "LEFCH; 21 DAA, 16 g ae/ha alone", "result": 15, "unit": "%"}, {"measurement": "Visual Weed Control (%) - 21 DAA LEFCH Obs", "setting": "LEFCH; 21 DAA, 17.5 g ae/ha alone", "result": 50, "unit": "%"}, {"measurement": "Visual Weed Control (%) - 21 DAA LEFCH Obs", "setting": "LEFCH; 21 DAA, 32 g ae/ha alone", "result": 25, "unit": "%"}, {"measurement": "Visual Weed Control (%) - 19 DAA LEFCH Obs", "setting": "LEFCH; 32 g ae/ha alone", "result": 50, "unit": "%"}, {"measurement": "Visual Weed Control (%) - 20 DAA LEFCH Obs", "setting": "LEFCH; 32 g ae/ha alone", "result": 30, "unit": "%"}, {"measurement": "pest or weed control at 4.38 g/ha", "setting": "LEFCH; Dinebra chinensis, post-emergence, 528 h, 4.38 g ae/ha alone, read-out: Visual Weed Control (%) - 22 DAA LEFCH Obs", "result": 30, "unit": "%"}, {"measurement": "pest or weed control at 8 g/ha", "setting": "LEFCH; Dinebra chinensis, post-emergence, 528 h, 8 g ae/ha alone, read-out: Visual Weed Control (%) - 22 DAA LEFCH Obs", "result": 25, "unit": "%"}, {"measurement": "pest or weed control at 16 g/ha", "setting": "LEFCH; Dinebra chinensis, post-emergence, 528 h, 16 g ae/ha alone, read-out: Visual Weed Control (%) - 22 DAA LEFCH Obs", "result": 30, "unit": "%"}, {"measurement": "pest or weed control at 8 g/ha", "setting": "LEFCH; Dinebra chinensis, post-emergence, 528 h, 22 DAA, 8 g ae/ha alone, second part of Table 18, read-out: Visual Weed Control (%) - 22 DAA LEFCH Obs", "result": 18, "unit": "%"}, {"measurement": "pest or weed control at 16 g/ha", "setting": "LEFCH; Dinebra chinensis, post-emergence, 528 h, 22 DAA, 16 g ae/ha alone, read-out: Visual Weed Control (%) - 22 DAA LEFCH Obs", "result": 25, "unit": "%"}, {"measurement": "pest or weed control at 16 g/ha", "setting": "LEFCH; Dinebra chinensis, post-emergence, 528 h, 22 DAA, 16 g ae/ha alone, second part of Table 18, read-out: Visual Weed Control (%) - 22 DAA LEFCH Obs", "result": 43, "unit": "%"}, {"measurement": "pest or weed control at 32 g/ha", "setting": "LEFCH; Dinebra chinensis, post-emergence, 528 h, 22 DAA, 32 g ae/ha alone, read-out: Visual Weed Control (%) - 22 DAA LEFCH Obs", "result": 55, "unit": "%"}, {"measurement": "pest or weed control at 32 g/ha", "setting": "LEFCH; Dinebra chinensis, post-emergence, 528 h, 22 DAA, 32 g ae/ha alone, second part of Table 18, read-out: Visual Weed Control (%) - 22 DAA LEFCH Obs", "result": 53, "unit": "%"}, {"measurement": "pest or weed control at 32 g/ha", "setting": "LEFCH; Dinebra chinensis, post-emergence, 528 h, 32 g ae/ha alone, read-out: Visual Weed Control (%) - 22 DAA LEFCH Obs", "result": 60, "unit": "%"}, {"measurement": "Visual Weed Control (%) - 21 DAA SCPMA Obs", "setting": "SCPMA; 21 DAA, 4.38 g ae/ha alone", "result": 0, "unit": "%"}, {"measurement": "Visual Weed Control (%) - 21 DAA SCPMA Obs", "setting": "SCPMA; 21 DAA, 8.75 g ae/ha alone", "result": 0, "unit": "%"}, {"measurement": "Visual Weed Control (%) - 21 DAA SCPMA Obs", "setting": "SCPMA; 21 DAA, 17.5 g ae/ha alone", "result": 0, "unit": "%"}]}
